# Results as given in patent US20230355536A1, “OZONE-BASED LOW TEMPERATURE SILICON OXIDE COATING FOR PHARMACEUTICAL APPLICATIONS” (Applied Materials, Inc., priority 2022, published 2023).
# How the values were obtained:
# Type in all cases: physicochemical
# [1] = HPLC analysis of API integrity after ozone treatment; conditions: ozone generated with oxygen flow rate of 10, 30 and 50 sccm
# Method: To test whether ozone treatment will affect the integrity of the API, the API (acetaminophen) was treated with ozone at various concentrations. Here, ozone was created by an ozone generator with various oxygen flow rates. The lower the oxygen flow rate, the high the ozone concentration is. Specifically, the API (acetaminophen) was treated with ozone generated with an oxygen flow rate of 10 sccm, 30 sccm and 50 sccm. FIGS. 8A-8D show the HPLC analysis of the API (acetaminophen) after ozone treatment. […] As shown in FIGS. 8A-8D, there were no new peaks (impurity) generated after ozone exposure with as low as 10 sccm oxygen flow rate (highest O3 concentration)
# [2] = Wetting/dispersity of particles in DI water; conditions: acetaminophen particles dissolved into DI water
# Method: The coated API (acetaminophen) particles were dissolved into DI water to test the wetting/dispersity properties of these particles.
# As a control group, API (acetaminophen) was also treated with silane to apply a monolayer of silane.
# [3] = FTIR spectrum of API particles before and after coating process; conditions: coated versus uncoated API particles
# From the text: FIGS. 2A-2B (FIG. 2B is a zoom-in image of FIG. 2A) show the FTIR spectrum of the coated and uncoated acetaminophen API particles.
# FIGS. 6A-6B (FIG. 6B is a zoom-in image of FIG. 6A) show the FTIR spectrum of the coated and uncoated theophylline API particles.
# FIGS. 9A-9B (FIG. 9B is a zoom-in image of FIG. 9A) show the FTIR spectrum of the coated and uncoated API-1 particles.
Structure (SMILES),new peaks (impurity) in HPLC after ozone exposure [1],wetting/dispersity [2],change in FTIR signals before and after the coating process [3]
CC(=O)Nc1ccc(O)cc1 [acetaminophen],no new peaks,poor wetting/dispersity,no significant change
"Cn1c(=O)c2[nH]cnc2n(C)c1=O [theophylline, reference compound]",–,–,no significant change
